The test concerns the target Escherichia coli DNA gyrase A/B tetramer (Escherichia coli, UniProt P0AES4+P0AES6). The test can be described thus: DNA gyrase supercoiling activity fluorescence polarisation assay. It counts as biochemical. The method, then: The supercoiling reactions may be quenched by the addition of 10 microliters/well of 40 nM oligodeoxynucleotide probe in 3× triplex-forming buffer consisting of 150 mM NaCl, and 150 mM sodium acetate at pH 3.5. The oligodeoxynucleotide probe may be 5′-BODIPY-FL-labeled […]. After 60 minutes, the fluorescence anisotropy of the BODIPY-FL may be measured in a Tecan Ultra plate reader, using 485 nm excitation and 535 nm emission filters equipped with polarizers. The IC50 may be determined by nonliner regression using two control reactions. The first contains no test compound but 0.8% DMSO (100% activity) while the second control reaction contains 5 uM Ciprofloxacin and 0.8% DMSO (0% activity).

Some results are limits rather than exact numbers.

Escherichia coli DNA gyrase A/B tetramer, sequence (P0AES4 whole entry, one chain of several): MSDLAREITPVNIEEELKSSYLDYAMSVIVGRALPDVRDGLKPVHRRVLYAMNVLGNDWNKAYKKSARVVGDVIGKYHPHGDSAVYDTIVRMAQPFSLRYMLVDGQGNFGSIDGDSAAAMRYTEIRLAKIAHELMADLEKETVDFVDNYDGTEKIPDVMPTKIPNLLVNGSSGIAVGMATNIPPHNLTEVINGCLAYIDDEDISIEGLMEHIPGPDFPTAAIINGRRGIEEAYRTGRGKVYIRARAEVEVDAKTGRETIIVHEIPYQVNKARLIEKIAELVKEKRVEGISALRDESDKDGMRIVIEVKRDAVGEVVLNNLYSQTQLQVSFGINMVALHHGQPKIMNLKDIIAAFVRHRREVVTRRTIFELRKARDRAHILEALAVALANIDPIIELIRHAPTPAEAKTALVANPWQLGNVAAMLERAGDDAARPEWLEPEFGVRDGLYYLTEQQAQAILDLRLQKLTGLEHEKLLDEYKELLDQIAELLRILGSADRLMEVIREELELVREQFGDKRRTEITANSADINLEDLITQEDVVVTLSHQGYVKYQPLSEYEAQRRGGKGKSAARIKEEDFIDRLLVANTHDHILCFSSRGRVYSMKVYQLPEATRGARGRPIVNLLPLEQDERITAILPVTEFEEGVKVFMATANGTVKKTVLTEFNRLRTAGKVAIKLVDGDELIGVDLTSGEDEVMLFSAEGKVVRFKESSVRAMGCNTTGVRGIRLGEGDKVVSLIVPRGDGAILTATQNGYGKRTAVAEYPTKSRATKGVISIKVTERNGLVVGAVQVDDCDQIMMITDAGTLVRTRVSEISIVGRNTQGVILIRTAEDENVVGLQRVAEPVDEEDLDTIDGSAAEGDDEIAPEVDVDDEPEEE

Turning to `COc1nc2c(cc1-c1nnc(C)s1)CC1(C(=O)NC(=O)NC1=O)[C@H]1[C@H](C)O[C@H](C)CN21` (racemic) [Example 119, (6aS,7S,9R)-rel-2-Methoxy-7,9-dimethyl-3-(5-methyl-1,3,4-thiadiazol-2-yl)-6a,7,9,10-tetrahydro-1′H,5H-spiro[[1,4]oxazino[4,3-a][1,8]naphthyridine-6,5′-pyrimidine]-2′., 4′,6′(3′H)-trione], it took 21 µM to reach half-maximal inhibition (IC50).
The value for `C[C@@H]1CN2c3ncc(-c4nncs4)cc3CC3(C(=O)NC(=O)NC3=O)[C@H]2[C@H](C)O1` (relative stereo) [Example 1, (6aS,7S,9R)-rel-7,9-Dimethyl-3-(1,3,4-thiadiazol-2-yl)-6a,7,9,10-tetrahydro-2′H,5H-spiro[1,4-oxazino[4,3-a][1,8]naphthyridine-6,5′-pyrimidine]-2′,4′,6′(1′H,3′H)-trione] was 7 µM.
The value for `C[C@@H]1CN2c3cnc(Br)cc3CC3(C(=O)NC(=O)NC3=O)[C@H]2[C@H](C)O1` (relative stereo) [Example 3, (6aS,7S,9R)-rel-3-Bromo-7,9-dimethyl-6a,7,9,10-tetrahydro-1′H,5H-spiro[[1,4]oxazino[4,3-a][1,7]naphthyridine-6,5′-pyrimidine]-2′,4′,6′(3′H)-trione] was 11 µM; that for `C[C@@H]1CN2c3cncc(F)c3CC3(C(=O)NC(=O)NC3=O)[C@H]2[C@H](C)O1` (relative stereo) [Example 6, (6aS,7S,9R)-rel-4-Fluoro-7,9-dimethyl-6a,7,9,10-tetrahydro-1′H,5H-spiro[[1,4]oxazino[4,3-a][1,7]naphthyridine-6,5′-pyrimidine]-2′,4′,6′(3′H)-trione] was > 83 µM.
Under `C[C@@H]1CN2c3ncc(Br)cc3CC3(C(=O)NC(=O)NC3=O)[C@H]2[C@H](C)O1` (relative stereo) [Example 9, (6aS,7S,9R)-rel-3-Bromo-7,9-dimethyl-6a,7,9,10-tetrahydro-1′H,5H-spiro[[1,4]oxazino[4,3-a][1,8]naphthyridine-6,5′-pyrimidine]-2′,4′,6′(3′H)-trione] stands 3 µM; under `C[C@@H]1CN2c3c(ccnc3Cl)CC3(C(=O)NC(=O)NC3=O)[C@H]2[C@H](C)O1` (relative stereo) [Example 12, (6aS,7S,9R)-rel-1-chloro-7,9-dimethyl-6a,7,9,10-tetrahydro-1′H,5H-spiro[[1,4]oxazino[4,3-a][1,7]naphthyridine-6,5′-pyrimidine]-2′,4′,6′(3′H)-trione], 21 µM; under `C[C@@H]1CN2c3nc(F)c(I)cc3CC3(C(=O)NC(=O)NC3=O)[C@H]2C(=O)N1` (relative stereo) [Example 14, (6aS,9R)-rel-2-Fluoro-3-iodo-9-methyl-9,10-dihydro-1′H-spiro[pyrazino[1,2-a][1,8]naphthyridine-6,5′-pyrimidine]-2′,4′,6′,7(3′H,5H,6aH,8H)-tetraone], 11 µM.
Regarding `Cc1nnc(-c2cc3c(nc2F)N2C[C@@H](C)O[C@@H](C)[C@@H]2C2(C3)C(=O)NC(=O)NC2=O)s1` (relative stereo) [Example 16, (6aS,7S,9R)-rel-2-Fluoro-7,9-dimethyl-3-(5-methyl-1,3,4-thiadiazol-2-yl)-6a,7,9,10-tetrahydro-1′H,5H-spiro[[1,4]oxazino[4,3-a][1,8]naphthyridine-6,5′-pyrimidine]-2′,4′,6′(3′H)-trione], the IC50 worked out at 7 µM. This IC50 lies about 1.6-fold lower than the previous one.
For `C[C@@H]1CN2c3nc(F)ccc3CC3(C(=O)NC(=O)NC3=O)[C@H]2[C@H](C)O1` (relative stereo) [Example 20, (6aS,7S,9R)-rel-2-Fluoro-7,9-dimethyl-6a,7,9,10-tetrahydro-1′H,5H-spiro[[1,4]oxazino[4,3-a][1,8]naphthyridine-6,5′-pyrimidine]-2′,4′,6′(3′H)-trione], the IC50 was 25 µM. This IC50 is about 3.6-fold higher than that of the compound before.
With `C[C@@H]1CN2c3nc(F)c(C#Cc4ccccn4)cc3CC3(C(=O)NC(=O)NC3=O)[C@H]2[C@H](C)O1` (relative stereo) [Example 21, (6aS,7S,9R)-rel-2-fluoro-7,9-dimethyl-3-(pyridin-2-ylethynyl)-6a,7,9,10-tetrahydro-1′H,5H-spiro[[1,4]oxazino[4,3-a][1,8]naphthyridine-6,5′-pyrimidine]-2′,4′,6′(3′H)-trione], half-maximal inhibition (IC50) required 10 µM.
In turn, `COc1ccc(C#Cc2cc3c(nc2F)N2C[C@@H](C)O[C@@H](C)[C@@H]2C2(C3)C(=O)NC(=O)NC2=O)cc1` (relative stereo) [Example 23, (6aS,7S,9R)-rel-2-Fluoro-3-((4-methoxyphenyl)ethynyl)-7,9-dimethyl-6a,7,9,10-tetrahydro-1′H,5H-spiro[[1,4]oxazino[4,3-a][1,8]naphthyridine-6,5′-pyrimidine]-2′,4′,6′(3′H)-trione] came in with an IC50 of 6 µM.
The value for `Cc1nnc(-c2cnc3c(c2)CC2(C(=O)NC(=O)NC2=O)[C@H]2[C@H](C)O[C@H](C)CN32)s1` (relative stereo) [Example 24, (6aS,7S,9R)-rel-7,9-Dimethyl-3-(5-methyl-1,3,4-thiadiazol-2-yl)-6a,7,9,10-tetrahydro-2′H,5H-spiro[1,4-oxazino[4,3-a][1,8]naphthyridine-6,5′-pyrimidine]-2′,4′,6′(1′H,3′H)-trione] was > 5 µM.
The value for `C[C@@H]1CN2c3ncc(-c4cncs4)cc3CC3(C(=O)NC(=O)NC3=O)[C@H]2[C@H](C)O1` (relative stereo) [Example 26, (6aS,7S,9R)-rel-7,9-Dimethyl-3-(1,3-thiazol-5-yl)-6a,7,9,10-tetrahydro-2′H,5H-spiro[1,4-oxazino[4,3-a][1,8]naphthyridine-6,5′-pyrimidine]-2′,4′,6′(1′H,3′H)-trione] was 4 µM; that for `C[C@@H]1CN2c3ncc(-c4cc5ccccc5s4)cc3CC3(C(=O)NC(=O)NC3=O)[C@H]2[C@H](C)O1` (relative stereo) [Example 28, (6aS,7S,9R)-rel-3-(1-Benzothiophen-2-yl)-7,9-dimethyl-6a,7,9,10-tetrahydro-2′H,5H-spiro[1,4-oxazino[4,3-a][1,8]naphthyridine-6,5′-pyrimidine]-2′,4′,6′(1′H,3′H)-trione] was 2 µM; that for `Cc1ccc(-c2cnc3c(c2)CC2(C(=O)NC(=O)NC2=O)[C@H]2[C@H](C)O[C@H](C)CN32)s1` (relative stereo) [Example 29, (6aS,7S,9R)-rel-7,9-Dimethyl-3-(5-methylthiophen-2-yl)-6a,7,9,10-tetrahydro-2′H,5H-spiro[1,4oxazino[4,3-a][1,8]naphthyridine-6,5′-pyrimidine]-2′,4′,6′(1′H,3′H)-trione] was 9 µM.
Under `Cc1ccsc1-c1cnc2c(c1)CC1(C(=O)NC(=O)NC1=O)[C@H]1[C@H](C)O[C@H](C)CN21` (relative stereo) [Example 30, (6aS,7S,9R)-rel-7,9-Dimethyl-3-(3-methylthiophen-2-yl)-6a,7,9,10-tetrahydro-2′H,5H-spiro[1,4-oxazino[4,3-a][1,8]naphthyridine-6,5′-pyrimidine]-2′,4′,6′(1′H,3′H)-trione] stands 12 µM; under `C[C@@H]1CN2c3ncc(-c4ccc(-c5nnn[nH]5)s4)cc3CC3(C(=O)NC(=O)NC3=O)[C@H]2[C@H](C)O1` (relative stereo) [Example 31, (6aS,7S,9R)-rel-7,9-Dimethyl-3-[5-(1H-tetrazol-5-yl)thiophen-2-yl]-6a,7,9,10-tetrahydro-2′H,5H-spiro[1,4-oxazino[4,3-a][1,8]naphthyridine-6,5′-pyrimidine]-2′,4′,6′(1′H,3′H)-trione], 6 µM.

The values are drawn from US20110178064A1, “SPIRO CONDENSED […] DERIVATIVES FOR USE AS ANTIBACTERIAL” (A[…]&D, priority 2007, published 2011).
